{
  "source": "paper PMC12000251",
  "about": "“Evaluation of the Anti-Inflammatory Effects of Novel Fatty Acid-Binding Protein 4 Inhibitors in Microglia” (Journal of Neuroimmune Pharmacology, 2025)",
  "key": {"[1]": {"molecular_target": "T1, Recombinantly-expressed human FABP4 (Homo sapiens, UniProt P15090)", "T1 construct": "made in house", "T1 sequence (P15090 whole entry, the tested form may be a part)": "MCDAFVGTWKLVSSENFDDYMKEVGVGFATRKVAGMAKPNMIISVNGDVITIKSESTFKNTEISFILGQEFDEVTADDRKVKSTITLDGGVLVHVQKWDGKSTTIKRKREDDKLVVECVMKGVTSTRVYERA", "test": "Isothermal titration calorimetry (ITC) binding affinity to FABP4", "details": "one-site binding model, read-out: KD (ITC titration of FABP4, Figure S1)", "method": "A prior fragment screen identified a series of bi-aryl sulfonamides that bound to FABP4. Analogues of this chemical sulfonamide scaffold were then purchased, which led to the identification of the compounds used in this study (MFP-0011462, MFP-0012314, MFP-0012318, and MFP-0012328). Their predicted LogP and tPSA values were calculated in Vortex v2020.1.117658-s (Dotmatics, Boston, MA). The binding affinity of these four compounds was characterised by isothermal titration calorimetry (ITC). ITC was carried out using an iTC200 microcalorimeter (MicroCal, United Kingdom) with a coin shaped sample cell (201.4 μL) with stirring at 1000 rpm at 25°C. Titrations were performed in an ITC buffer (50 mM sodium phosphate, 50 mM NaCl, pH 7.4 with 2% DMSO). Compounds were diluted from concentrated stocks in ITC buffer and loaded into the titration syringe at a concentration of 1 mM, with a final DMSO concentration of 2% (v/v). Recombinantly-expressed human FABP4 was prepared as described previously (Lee et al. [2015a]) in an identical buffer at a protein concentration of 80 μM and placed in the sample cell. A thermal equilibration step at 25°C was followed by an initial 180 s delay step and subsequently an initial 0.2 μL injection. 16 serial injections of the 1 mM compound solution (2 μL each) were made at intervals of 220 s with continuous stirring of the solution in the sample cell. The iTC200 control software was used to operate and acquire raw data as power (microcalories/sec) vs time (min). The data were processed using the Origin 7.0 software (MicroCal) and the binding affinity (KD) was calculated by fitting the data to a one-site binding model."}, "LPS-activated BV-2 cells [2]": {"test_system": "LPS-activated BV-2 cells", "test": "Intracellular ROS (DCF-DA) in LPS-activated BV-2 cells", "assay_type": "cell-based, mouse", "method": "BV-2 cells were cultured in DMEM/F-12 media supplemented with 10% (v/v) FBS and 1% (v/v) penicillin/streptomycin, and kept at 37 °C in a humidified incubator ([…], 5% CO2) for all studies. Cells with 80% confluency were used for experiments. […] In some experiments (detailed in Results), BV-2 cells were exposed to MFP compounds for 2 h before a 24 h exposure to LPS and MFP compounds, and in some studies, in the presence of FABP4 siRNA using a 24 h treatment that we have previously employed (Low et al. [2021]). In brief, BV-2 cells were washed once 4 h post-seeding with blank DMEM/F-12 media. siRNA complexes (containing FABP4 siRNA, target sequence 5’-[…]-3’ or AllStar Negative Control siRNA, target sequence proprietary) were added dropwise onto the cells. siRNA complexes were prepared by mixing siRNA and HiPerfect transfection reagent together in FBS-free DMEM/F12 media and incubating for 15 min to allow the siRNA complexes to form. The cells were incubated with the siRNA complex for 5 min, after which, DMEM/F12 media containing FBS was added into each well to dilute the siRNA complexes to 5 nM.\nIntracellular ROS in BV-2 cells, following treatment with MFP compounds and LPS, was detected using the widely-used membrane permeable probe, DCF-DA. Post treatment, BV-2 cells were rinsed once with warm HBSS prior to being incubated with 40 µM of DCF-DA for 30 min at 37°C, 5% CO2. The wells were then rinsed again with HBSS before being read on a Perkin-Elmer Enspire plate reader (λex: 488 nm, λem: 535 nm) as we have reported previously (Kagawa et al. [2023])."}, "LPS-activated BV-2 cells [3]": {"test_system": "LPS-activated BV-2 cells", "test": "RT-qPCR for TNF-α mRNA expression in LPS-activated BV-2 cells", "assay_type": "cell-based, mouse", "details": "10 µM, 1 µg/mL LPS 24 h", "method": "BV-2 cells were cultured in DMEM/F-12 media supplemented with 10% (v/v) FBS and 1% (v/v) penicillin/streptomycin, and kept at 37 °C in a humidified incubator ([…], 5% CO2) for all studies. Cells with 80% confluency were used for experiments. At 24 h post-seeding, BV-2 cells were treated with either of the MFP compounds (at concentrations detailed below) or vehicle (0.1% (v/v) DMSO) and 1 µg/mL LPS for a period of 24 h. In some experiments (detailed in Results), BV-2 cells were exposed to MFP compounds for 2 h before a 24 h exposure to LPS and MFP compounds, and in some studies, in the presence of FABP4 siRNA using a 24 h treatment that we have previously employed (Low et al. [2021]). […]\nRT-qPCR was performed to determine the amount of TNF-α mRNA following the required cell treatments, as previously described (Low et al. [2020]). […] The concentration and purity of the isolated RNA was assessed using a Thermo Fisher Nanodrop 1000 spectrophotometer (Rockford, IL). […] The threshold cycles (Ct) were automatically calculated using the CFX manager software. […]"}},
  "data": [
    {"smiles": "O=C(O)c1cccc(NS(=O)(=O)c2ccc(Cl)c(Cl)c2)c1", "note": "[MFP-0012328]", "values": [
      {"measurement": "Kd", "setting": "[1]", "result": 316, "unit": "nM"},
      {"measurement": "reduction of ROS production vs LPS-treated BV-2 cells", "setting": "LPS-activated BV-2 cells [2]; 5 nM FABP4 siRNA, 10 µM MFP-0012328, or both, with 1 µg/mL LPS 24 h, range over the three treatments", "result": "36.6–61.2%"},
      {"measurement": "further reduction of ROS levels in FABP4 siRNA treated cells", "setting": "LPS-activated BV-2 cells [2]; 10 µM plus 5 nM FABP4 siRNA, 1 µg/mL LPS 24 h", "result": "not able to reduce ROS levels any further"},
      {"measurement": "reduction of ROS production vs LPS-alone", "setting": "LPS-activated BV-2 cells [2]; BV-2 cells pre-treated with LPS for 4 h, then 10 µM compound", "result": 27.8, "unit": "%"},
      {"measurement": "reduction of TNF-α mRNA levels relative to LPS alone", "setting": "LPS-activated BV-2 cells [3]", "result": 17, "unit": "%"}
    ]}
  ]
}
